Results on eight compounds are retold here after patent US12012417B2, “N-substituted tetrahydrothienopyridine derivatives and uses thereof” (NOVARTIS AG, priority 2018, dated 2024).

The structures appear in SMILES notation.

For assay [1], the system named is Dengue 3 virus MY05-34640-WT-C6/36. In words: High-content imaging cell-based flavivirus immunodetection (HCl-CFI) assay, Dengue 3. The settings on record: Dengue virus, A549, 48 h, read-out: Dengue 3 virus MY05-34640-WT-C6/36 in A549 using HCl [Inhibitor/IC50] Qualified AC50.
For assay [2], the system named is DENV-2 (strain TSV01). In words: Antiviral in vivo efficacy in dengue mouse model. The settings on record: oral gavage, 3 consecutive days, AG129 mice, qRT-PCR. As for the experimental part:
Antiviral In Vivo Efficacy in Dengue Mouse Model
AG129 mice (lacking IFN-α/β and IFN-γ receptors, (Schul, W. et al. 2007. J. Infect. Dis., 195, 665-74)) was obtained from Biological Resource Center (BRC), Singapore. Male and female AG129 mice aged 8 to 14 weeks (weighed 20-30 grams, n=6 per group) were used. Infection of DENV-2 (strain TSV01) was given intraperitoneally (500 μL, 1.4×10^7 pfu/mL). The DENV-2 strain TSVO1 was used in the mouse model and was propagated in C6/36 mosquito cells. Compounds were formulated (% w/w) in either 0.5% methylcellulose, 0.5% Tween and 99.0% deionized water or 20% polyethylene glycol (PEG300), 10% Cremophor RH40, and 70% 100 mM pH 3 citrate buffer (% v/v). Compounds were dosed immediately after infection through oral gavage for 3 consecutive days. Terminal blood sample (anticoagulant: K2EDTA) was obtained for viremia read-out by qRT-PCR as previously described (Santiago, G. A., et al. 2013. PLoS Negl. Trop. Dis., 7, e2311).

Assay [3] has as its system Dengue 4 virus MY01-22713. Put plainly: High-content imaging cell-based flavivirus immunodetection (HCl-CFI) assay, Dengue 4. The settings on record: Dengue virus, A549, 48 h, read-out: Dengue 4 virus MY01-22713 in A549 using HCl [Inhibitor/IC50] Qualified AC50, A549 cells, 48 h, viral E protein expression.
Assay [4] relates to Dengue 1 virus MY97-10245. In words: High-content imaging cell-based flavivirus immunodetection (HCl-CFI) assay, Dengue 1. The settings on record: Dengue virus, A549, 48 h, read-out: Dengue 1 virus MY97-10245 in A549 using HCl [Inhibitor/IC50] Qualified AC50.
Assay [5] relates to Dengue 2 virus MY97-10340. Put plainly: High-content imaging cell-based flavivirus immunodetection (HCl-CFI) assay, Dengue 2. The settings on record: Dengue virus, A549, 48 h, read-out: Dengue 2 virus MY97-10340 in A549 using HCl [Inhibitor/IC50] Qualified AC50, A549 cells, MOI 0.3, 48 h, viral E protein expression. In outline:
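A549 cells infected at MOI 0.3, treated with 3-fold, 10-point compound dilutions for 48 h. After paraformaldehyde fixation, viral E protein immunostained with 4G2 antibody and nuclei counterstained; imaged by high-content imaging. EC50 = concentration reducing E protein expression by 50%, from dose-response curves.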

Assay [6] has as its system DENV-2 (strain TSV01). In words: Antiviral in vivo efficacy in dengue mouse model. The settings on record: 180 mg/kg single dose, oral gavage, AG129 mice, qRT-PCR. (In general: Real-time PCR tracks product formation cycle by cycle.)

Regarding `CC1Cc2sc(NC(=O)Cc3ccc(S(N)(=O)=O)cc3)c(C#N)c2CN1Cc1cccc(F)c1` (stereo not shown) [Example 53, N-(3-cyano-5-(3-fluorobenzyl)-6-methyl-4,5,6,7-tetrahydrothieno[3,2-c]pyridin-2-yl)-2-(4-sulfamoylphenyl)acetamide], the EC50 in assay [1] is under 100 nM; in assay [3], under 100 nM; in assay [4] it was 100 to 1000 nM; in assay [5] it was under 100 nM. Moreover, the “Log DENV-2 viremia reduction” value with DENV-2 (strain TSV01) [2] (30 mg/kg b.i.d.) is on record as 0.80 Log; in the assay on DENV-2 (strain TSV01) [2] (100 mg/kg b.i.d.), 1.78 Log; in the assay on DENV-2 (strain TSV01) [2] (100 mg/kg q.d.), 1.06 Log.

As to `N#Cc1c(NC(=O)Cc2ccc(S(N)(=O)=O)cc2)sc2c1CCN(Cc1cc(Cl)ccc1Cl)C2` [Example 109, N-(3-cyano-6-(2,5-dichlorobenzyl)-4,5,6,7-tetrahydrothieno[2,3-c]pyridin-2-yl)-2-(4-sulfamoylphenyl)acetamide], the EC50 in assay [1] is 100 to 1000 nM; in assay [3] it was 100 to 1000 nM; in assay [4] it was over 1000 nM; in assay [5], 100 to 1000 nM. Besides, the “Log DENV-2 viremia reduction” value in the assay with DENV-2 (strain TSV01) [2] (100 mg/kg b.i.d.) was determined as 1.60 Log.

On to `CC1(C)Cc2sc(NC(=O)Cc3ccc(S(N)(=O)=O)cc3)c(C#N)c2CN1CC1CC(F)(F)C1` [Example 77, N-(3-cyano-5-((3,3-difluorocyclobutyl)methyl)-6,6-dimethyl-4,5,6,7-tetrahydrothieno[3,2-c]pyridin-2-yl)-2-(4-sulfamoylphenyl)acetamide], for which the EC50 is under 100 nM in assay [1], under 100 nM in assay [3], 100 to 1000 nM in assay [4] and under 100 nM in assay [5]. Moreover, the “Log DENV-2 viremia reduction” value in the assay with DENV-2 (strain TSV01) [2] (30 mg/kg b.i.d.) was 0.62 Log.

For the compound `COc1cc(CC(=O)Nc2sc3c(c2C#N)CN(CC2CCCCC2)CC3)ccc1S(N)(=O)=O` [Example 83, N-(3-cyano-5-(cyclohexylmethyl)-4,5,6,7-tetrahydrothieno[3,2-c]pyridin-2-yl)-2-(3-methoxy-4-sulfamoylphenyl)acetamide], the “Log DENV-2 viremia reduction” value amounted to 0.60 Log in the assay with DENV-2 (strain TSV01) [2] (30 mg/kg b.i.d.) and 0.94 Log with DENV-2 (strain TSV01) [2] (100 mg/kg q.d.).

Turning to `N#Cc1c(NC(=O)Cc2ccc(S(N)(=O)=O)cc2)sc2c1CCN(Cc1cccc(F)c1)C2` [Example 100, N-(3-cyano-6-(3-fluorobenzyl)-4,5,6,7-tetrahydrothieno[2,3-c]pyridin-2-yl)-2-(4-sulfamoylphenyl)acetamide], in the assay with DENV-2 (strain TSV01) [2] (100 mg/kg b.i.d.), the “Log DENV-2 viremia reduction” value worked out at 1.50 Log.

On to `CC1(C)Cc2sc(NC(=O)Cc3ccc(S(N)(=O)=O)cc3)c(C#N)c2CN1CC1CCCCC1` [Example 71, N-(3-cyano-5-(cyclohexylmethyl)-6,6-dimethyl-4,5,6,7-tetrahydrothieno[3,2-c]pyridin-2-yl)-2-(4-sulfamoylphenyl)acetamide], for which the EC50 in assay [1], in assay [3], in assay [4] and in assay [5] was under 100 nM throughout. The “Log DENV-2 viremia reduction” value with DENV-2 (strain TSV01) [2] (10 mg/kg b.i.d.) is listed as 0.51 Log; in the assay on DENV-2 (strain TSV01) [2] (30 mg/kg b.i.d.) it was 1.45 Log; in the assay with DENV-2 (strain TSV01) [2] (60 mg/kg q.d.), 1.54 Log; in the assay with DENV-2 (strain TSV01) [2] (100 mg/kg b.i.d.) it was 3.0 Log; in the assay on DENV-2 (strain TSV01) [6], 1.49 Log.

On to `CCC1(CC)Cc2sc(NC(=O)Cc3ccc(S(N)(=O)=O)cc3)c(C#N)c2CN1CC1CCCCC1` [Example 76, N-(3-cyano-5-(cyclohexylmethyl)-6,6-diethyl-4,5,6,7-tetrahydrothieno[3,2-c]pyridin-2-yl)-2-(4-sulfamoylphenyl)acetamide], for which the EC50 in assay [1], in assay [3], in assay [4] and in assay [5] was under 100 nM throughout.

With `CC1Cc2sc(NC(=O)Cc3ccc(S(N)(=O)=O)cc3)c(C#N)c2CN1Cc1cc(Cl)ccc1Cl` (stereo not shown) [Example 64, N-(3-cyano-5-(2,5-dichlorobenzyl)-6-methyl-4,5,6,7-tetrahydrothieno[3,2-c]pyridin-2-yl)-2-(4-sulfamoylphenyl)acetamide], the EC50 in assay [1], in assay [3], in assay [4] and in assay [5] was under 100 nM each time.
